Values quoted from earlier work as cited in patent US11534589B2, “Iontophoretic microneedle device” (LTS LOHMANN THERAPIE-SYSTEME AG, priority 2017, dated 2022).
Read-outs that look alike come from different tables or passages of the source.

What was measured:
[1] = maltose microneedles combined with iontophoresis, hairless rats

| Increase in delivery [1] [fold] | Bioavailability (nasal spray) [%] | Bioavailability (oral tablet) | SMILES |
| --- | --- | --- | --- |
| 25 |  |  | CN(Cc1cnc2nc(N)nc(N)c2n1)c1ccc(C(=O)N[C@@H](CCC(=O)O)C(=O)O)cc1 [methotrexate] |
|  | ≤ 14 | not more than 15% | CNS(=O)(=O)Cc1ccc2[nH]cc(CCN(C)C)c2c1.O=C(O)CCC(=O)O [sumatriptan, 3-[2-(dimethylamino)ethyl]-N-methyl-indole-5-methane-sulfonamide succinate (1:1)] |
